Entries after “also recorded” stand apart in the source; their conditions may differ.
Experiments:
[1] = system: Male Sprague-Dawley rats; assay: Seltzer or Partial Nerve Ligation (PNL) model of neuropathic pain, mechanical allodynia; assay type: in vivo, rat; conditions: 25 mg/kg i.p., 90 min post-treatment
From the text: The Partial Nerve Ligation (PNL) model (Seltzer et al., Pain 1990; 43:205) was used to induce chronic neuropathic pain. Male Sprague-Dawley rats were anesthetized with isoflurane, and injury to the sciatic nerve was achieved by tying a tight ligature around ⅓ to ½ of the sciatic nerve just proximal to the nerve's trifurcation in the mid-thigh. Animals develop thermal and mechanical hyperalgesia and allodynia, as well as a long-lasting spontaneous pain or dysesthesia after the nerve injury.
Mechanical allodynia testing: Pre- and post-injury baselines as well as post-treatment values (vehicle or compound-treated animals) for mechanical allodynia were evaluated using Von Frey filaments (Stoelting, Wood Dale, Ill., USA) with varying stiffness. […] The mean and standard error of the mean (SEM) were determined for each paw in each treatment group (ipsilateral/injured paw and contralateral/non-injured paw). […] Effects of compounds were evaluated two weeks after the injury. Compound or vehicle was administered (i.p. or s.c.) and effects on mechanical allodynia were measured at different time points after dosing (e.g., 30, 60 and 90 min.).
Data analysis: Statistical analyses were conducted using Prism™ 4.01 (GraphPad, San Diego, Calif., USA). Mechanical hypersensitivity of the injured paw was determined by comparing contralateral to ipsilateral paw values within the vehicle group at each time point. […]

[2] = system: NGF-induced Erk 1/2 phosphorylation in PC12 cells; assay: Erk phosphorylation in NGF-stimulated PC12 cells (Western blot, ELISA); assay type: cell-based, rat; conditions: 1 ng/mL NGF, result in words
Procedure: This assay is useful for establishing that the compounds of the invention are functional NGF antagonists, not receptor agonists (an agonist could conceivably block NGF binding but actually activate the receptor). Erk 1/2 is a kinase activated down stream of TrkA and is a well studied member of the NGF-induced signal transduction cascade.
PC12 cells expressing TrkA and p75 were acutely exposed to 1 ng/mL NGF (15 min; 37° C.; 5% CO2) that was pre-incubated (30 min; room temperature) with or without the compounds. Cells were lysed in Laemmli sample buffer (for SDS-PAGE) or a lysis buffer containing Triton X-100 (for ELISA). Following SDS-PAGE, proteins were electroblotted onto nitrocellulose and immunoprobed for phosphorylated Erk 1 and 2. Blocking and primary antibody incubations of immunoblots were performed in Tris-buffered saline-Tween (10 mM Tris, pH 8.0, 150 mM NaCl, and 0.2% Tween 20) supplemented with 5% (w/v) bovine serum albumin (BSA); secondary antibody incubations were performed in 5% (w/v) dried skim milk powder. Immunoreactive bands were detected by chemiluminescence.
To detect phosphorylated Erk 1/2 by ELISA, a kit from R&D (Minneapolis, Minn.) Systems was used. […] The quantity of phosphoryated Erk 1/2 was quantified colorometrically with a standard HRP-streptavidin reaction.

## O=C(O)c1ccc(Cl)c(N2C(=O)c3cccc4cc([N+](=O)[O-])cc(c34)C2=O)c1 [Compound 5, 4-Chloro-3-(5-nitro-1,3-dioxo-1H,3H-benzo[de]isoquinolin-2-yl)-benzoic acid]
[1]; result in words, 25 mg/kg
  antinociceptive effect / reversal of mechanical allodynia in partial nerve ligation model: significant reversal of the mechanical allodynia; also recorded: antinociceptive effects
[1]; vehicle 2.17±0.19 g, n=7
  mechanical allodynia, Von Frey response threshold of injured paw: 5.14 ± 0.36 g
[2]
  NGF-induced Erk 1/2 phosphorylation, ELISA: inhibits NGF-induced Erk 1/2 phosphorylation
  NGF-induced Erk 1/2 phosphorylation, Western blot: inhibits NGF-induced Erk 1/2 phosphorylation

— patent US20070123514A1, “Methods of modulating neurotrophin-mediated activity” (PainCeptor Pharma Corporation, priority 2005, published 2007)
